According to publication PMC3916150 (Journal of medicinal chemistry, 2013):
Read-outs that look alike come from different tables or passages of the source.

How the values were obtained:
VDR-RXR = conditions: for inhibition of VDR activity compared with compound 1: both assays (10^-6 M and 10^-7 M), ER6 VDRE
[1] = test system: HuT-78 (human T-cell lymphoma) cells; assay: Caspase-Glo 3/7 apoptosis assay in CTCL cells; assay type: cell-based; conditions: 100 nM
human RARα = biological target: T1, human RARα (Homo sapiens, UniProt P10276); assay: RAR/RARE-luciferase reporter assay in HCT-116 cells; conditions: RARE-luciferase, versus all-trans retinoic acid
T1 sequence (P10276 1-462): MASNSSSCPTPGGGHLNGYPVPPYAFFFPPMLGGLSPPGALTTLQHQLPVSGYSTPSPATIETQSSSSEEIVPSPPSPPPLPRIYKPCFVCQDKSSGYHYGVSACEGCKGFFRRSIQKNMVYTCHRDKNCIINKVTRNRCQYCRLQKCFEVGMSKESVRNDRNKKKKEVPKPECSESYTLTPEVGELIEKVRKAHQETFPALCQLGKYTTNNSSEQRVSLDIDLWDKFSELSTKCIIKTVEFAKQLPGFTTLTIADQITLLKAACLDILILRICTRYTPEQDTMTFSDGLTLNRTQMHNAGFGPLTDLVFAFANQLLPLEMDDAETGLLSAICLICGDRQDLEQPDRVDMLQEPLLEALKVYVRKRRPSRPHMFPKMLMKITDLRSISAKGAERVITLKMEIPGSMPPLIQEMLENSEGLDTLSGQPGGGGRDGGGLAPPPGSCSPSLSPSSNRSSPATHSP

human RXRα = biological target: T2, human RXRα (Homo sapiens, UniProt P19793); assay: RXRE-luciferase reporter transcription assay in HCT-116 cells; assay type: cell-based; conditions: 25 nM and 100 nM (both assays), HCT-116, Figure 5A and B
T2 sequence (P19793 1-462): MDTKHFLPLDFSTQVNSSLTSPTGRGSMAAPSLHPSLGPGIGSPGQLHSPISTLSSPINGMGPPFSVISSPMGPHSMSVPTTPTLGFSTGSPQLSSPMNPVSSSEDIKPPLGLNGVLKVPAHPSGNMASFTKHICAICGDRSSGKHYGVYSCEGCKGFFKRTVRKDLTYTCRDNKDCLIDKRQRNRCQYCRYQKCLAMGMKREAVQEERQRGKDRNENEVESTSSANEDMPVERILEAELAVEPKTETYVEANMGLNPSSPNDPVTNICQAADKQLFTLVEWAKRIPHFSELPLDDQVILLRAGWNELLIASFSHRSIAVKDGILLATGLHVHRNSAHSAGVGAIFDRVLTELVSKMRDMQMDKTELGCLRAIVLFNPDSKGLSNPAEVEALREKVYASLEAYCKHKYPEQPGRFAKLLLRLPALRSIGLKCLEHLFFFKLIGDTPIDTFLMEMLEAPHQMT

human RXR = biological target: T3, human RXR (Homo sapiens, UniProt P19793); assay: RXR mammalian two-hybrid; conditions: for RXR binding and homodimerization (luciferase output) compared to compound 1: 24 h; for RXR-mediated transcriptional activity: data in Figures 4 and 5 (M2H and RXRE assays)
T3 sequence (P19793 1-462) 1: T2 sequence (P19793 1-462)
T3 sequence (P19793 1-462) 2: T2 sequence (P19793 1-462)

[2] = 100 nM analog + 1 nM 1,25D, Fig. 7A
[3] = 1,000 nM analog + 1 nM 1,25D, Fig. 7B
[4] = 100 nM analog + 1 nM 1,25D, Fig. 7C
[5] = 100 nM analog + 1 nM 1,25D, Fig. 7E
[6] = 1,000 nM analog + 1 nM 1,25D, Fig. 7F

Row | Compound | ER6 VDRE-mediated activity versus 1,25D alone (VDR-RXR; [2]) | ER6 VDRE-mediated activity versus 1,25D alone (VDR-RXR; [3]) | apoptosis compared to ethanol vehicle control ([1]; 24 hours) | apoptosis compared to ethanol vehicle control ([1]; 48 hours) | inhibition of VDR activity compared with compound 1 (VDR-RXR) | RAR agonist activity compared to bexarotene (human RARα) | RXRE-mediated transcriptional activity compared to compound 1 (human RXRα) | RXR binding and homodimerization (luciferase output) compared to compound 1 (human RXR; 25 nM, HCT-116, Figure 4A) | RXR binding and homodimerization (luciferase output) compared to compound 1 (human RXR; 100 nM, HCT-116, Figure 4B) | RXR-mediated transcriptional activity (human RXR) | DR3 VDRE-mediated activity versus 1,25D alone (VDR-RXR; [4]) | CYP24 natural promoter 1,25D-VDR transactivation versus 1,25D alone (VDR-RXR; [5]) | CYP24 natural promoter 1,25D-VDR transactivation versus 1,25D alone (VDR-RXR; [6]) | DR3 VDRE-mediated activity versus 1,25D alone (VDR-RXR; 1,000 nM analog + 1 nM 1,25D, Fig. 7D)
1 | Cc1cc2c(cc1C1(c3ccc(C(=O)O)cn3)CC1)C(C)(C)CCC2(C)C [Compound 9, 6-[1-(3,5,5,8,8-Pentamethyl-5,6,7,8-tetrahydronaphthalen-2-yl)cyclopropyl]nicotinic Acid, reference compound] | significantly lower | significantly lower | greater than the ethanol vehicle control | greater than the ethanol vehicle control |  |  |  |  |  |  |  |  |  | 
2 | C=C(c1ccc(C(=O)O)cc1)c1cc2c(cc1C)C(C)(C)C=CC2(C)C [Compound 10, 4-[1-(3,5,5,8,8-Pentamethyl-2–5,8-dihydronaphthyl)vinyl]benzoic Acid, reference compound] |  |  | greater than the ethanol vehicle control |  | inhibited VDR activity less | greater RAR agonist activity | transcriptional activity consistently above the compound 1 level |  |  |  |  |  |  | 
3 | Cc1cc2c(cc1-c1cc(/C=C/C(=O)O)ccc1O)C(C)(C)CCC2(C)C [Compound 11, (E)-3-(3-(1,2,3,4-tetrahydro-1,1,4,4,6-pentamethylnaphthalen-7-yl)-4-hydroxyphenyl)acrylic acid, reference compound] | significantly lower | significantly lower |  |  |  | slightly lower RAR-directed activity |  | greater activity than compound 1 | high activity compared with compound 1 | consistently more active |  |  |  | 
4 | Cc1cc2c(cc1-c1cccc(/C=C/C(=O)O)c1)C(C)(C)CCC2(C)C [Compound 12, (E)-3-(3-(1,2,3,4-tetrahydro-1,1,4,4,6-pentamethylnaphthalen-7-yl)phenyl)acrylic acid, reference compound] |  | significantly lower | greater than the ethanol vehicle control |  |  | slightly lower RAR-directed activity |  |  |  | consistently lower RXR-mediated transcriptional activity | significantly lower | significant inhibiton | significant inhibiton | 
5 | Cc1cc2c(cc1C1(c3ncc(C(=O)O)cn3)CC1)C(C)(C)CCC2(C)C [Compound 14] |  | significantly lower | greater than the ethanol vehicle control | greater than the ethanol vehicle control | inhibited VDR activity less | greater RAR agonist activity |  |  |  |  |  |  |  | 
6 | Cc1ccc(/C=C/C(=O)O)cc1-c1cc2c(cc1C)C(C)(C)CCC2(C)C [Compound 15, (E)-3-(3-(1,2,3,4-tetrahydro-1,1,4,4,6-pentamethylnaphthalen-7-yl)-4-methylphenyl)acrylic acid] | significantly lower | significantly lower |  |  |  | greater RAR agonist activity |  | greater activity than compound 1 | high activity compared with compound 1 | consistently more active |  |  |  | significantly higher
7 | Cc1cc2c(cc1-c1cc(/C=C/C(=O)O)ccc1C(F)(F)F)C(C)(C)CCC2(C)C [Compound 16, (E)-3-(4-(trifluoromethyl)-3-(1,2,3,4-tetrahydro-1,1,4,4,6-pentamethylnaphthalen-7-yl)phenyl)acrylic acid] |  | significantly lower | greater than the ethanol vehicle control |  |  | slightly lower RAR-directed activity |  |  |  | consistently lower RXR-mediated transcriptional activity |  |  |  | 
8 | Cc1ccc(/C=C/C(=O)O)cc1-c1cc2c(cc1C)C(C)(C)C=CC2(C)C [Compound 17, (2E)-3-(3-(1,4-dihydro-1,1,4,4,6-pentamethylnaphthalen-7-yl)-4-methylphenyl)acrylic acid] |  | significantly lower | greater than the ethanol vehicle control | greater than the ethanol vehicle control | inhibited VDR activity less | greater RAR agonist activity |  |  |  | consistently lower RXR-mediated transcriptional activity | significantly lower |  |  | 
9 | Cc1cc2c(cc1-c1cc(/C=C/C(=O)O)ccc1O)C(C)(C)C=CC2(C)C [Compound 18, (2E)-3-(3-(1,4-dihydro-1,1,4,4,6-pentamethylnaphthalen-7-yl)-4-hydroxyphenyl)acrylic acid] |  | significantly lower | greater than the ethanol vehicle control | greater than the ethanol vehicle control |  | approximately equal to bexarotene |  | approaching statistical significance |  | consistently more active |  | significant inhibiton | significant inhibiton | 
10 | C=C(c1ccc(C(=O)O)c(F)c1)c1cc2c(cc1C)C(C)(C)C=CC2(C)C [Compound 19, 2-Fluoro-4-(1-(1,4-dihydro-1,1,4,4,6-pentamethylnaphthalen-7-yl)vinyl)benzoic acid] |  | significantly lower | greater than the ethanol vehicle control | greater than the ethanol vehicle control |  | greater RAR agonist activity |  |  |  | consistently lower RXR-mediated transcriptional activity |  | significant inhibiton |  | 
11 | Methyl 2-(1-(1,2,3,4-tetrahydro-1,1,4,4,6-pentamethylnaphthalen-7-yl)vinyl)pyridine-5-carboxylate [Compound 13] |  | significantly lower | greater than the ethanol vehicle control | greater than the ethanol vehicle control | inhibited VDR activity less | greater RAR agonist activity |  |  |  |  |  |  |  | 
